Test results taken from article PMC3948622, “Docking, Synthesis and Antiproliferative Activity of N-Acylhydrazone Derivatives Designed as Combretastatin A4 Analogues” (PLoS ONE, 2014).

Columns and labels:
HL-60 (human leukemia) = assay: In vitro antiproliferative MTT assay, HL-60; format: cell-based
tubulin = assay: Tubulin polymerization assay (CEREP); format: biochemical; settings: single concentration C = 30 µM; vinblastine as positive control
Method: The tubulin polymerization assay was performed by CEREP® employing a single concentration of 5b (C = 30 µM), using vinblastine as positive control. In this assay, LASSBio-1586 (5b) inhibited 91% of the tubulin polymerization, validating the rational design employed in the molecular design of the derivatives 5a–r (data not shown; available in the supplementary information, Figure S1).
The tubulin polymerization assay was performed by CEREP®, as described by Bonne and co-workers.

PC3M (prostate cancer) = assay: In vitro antiproliferative MTT assay, PC3M; format: cell-based
SF-295 (glioblastoma) = assay: Hollow Fiber Assay (HFA), SF-295 fibers s.c. in mice; format: in vivo, BALB/c nude mice; settings: 4 days; for Proliferation (OD595 nm) SF-295: mean ± S.E.M.
Method: (§1) Cell culture of SF-295 (glioblastoma) and HCT-116 (colon carcinoma) was performed in RPMI 1640 medium supplemented with 10% fetal bovine serum, 2 mM glutamine, at 37°C with 5% CO2.
(§2) Polyvinylidene fluoride (PVDF) HFs with a 1-mm internal diameter and a molecular weight cutoff point of 500 kDa were used (Spectrum Laboratories, Houston, TX). The fibers were cut into pieces 12–15 cm long, washed 2× with sterile distilled water and kept in sterile conditions.
(§3) Before use, under sterile conditions, the fibers were incubated in complete RPMI with 20% fetal bovine serum (FBS) overnight (packaging time). Cell viability was assessed by trypan blue exclusion assay. Then, a cell suspension of 7.0×10^6 cell/mL at 4°C was injected into the fiber, with the ends thereof immediately heat-sealed. The fibers were cut into 2 cm each, transferred to petri plates and incubated in complete RPMI medium for 24 h prior to implantation in mice. Each cell was injected into one fiber of a different color (HCT-116, yellow fibers; SF-295, blue fibers).
(§4) Each animal received 2 fibers at s.c. site. All incisions were sealed with a surgical stapler.
(§5) Tumor cell proliferation was quantified through the ability of living cells to reduce the yellow dye 3-(4,5-dimethyl-2-thiazolyl)-2,5-diphenyl-2H-tetrazolium bromide (MTT, Sigma Aldrich) to a purple formazan product. For this purpose, the fibers removed from animals were incubated with MTT 1 mg/mL in 6-well plates during 4 h at 37°C, 5% CO2 and 95% humidity. The MTT solution was aspirated; fibers were washed with saline solution containing protamine sulphate 2.5% and incubated in protamine solution overnight at 4°C. Fibers were transferred to 24 well plates, cut into 2 or 3 pieces and put to dry. The formazan was dissolved in […] of DMSO, aliquots (150 uL) were transferred to 96 well plates and absorbance was measured at 595 nm (DTX-880, Beckman Coulter).

tumor cell lines = assay: In vitro antiproliferative MTT assay, tumor cell lines (summary over the panel); format: cell-based; settings: summary in text over the cell lines of Table 2; read-out: IC50 (antiproliferative potency over the tumor cell lines)
Method: The antiproliferative activity of compounds 5a–r was determined based on an MTT assay and using CA-4 as standard against the tumor cell lines: HL-60 (human leukemia), SF-295 (human glioblastoma), MDA-MB435 (melanoma), PC3M (prostate cancer), OVCAR-8 (ovaries adenocarcinoma), NCI-H258M (pulmonary bronchio-alveolar carcinoma) and HCT-8 (adenocarcinoma ileocecal) (Table 2). To determine the selectivity index of compounds 5a–r, their antiproliferative profile was also evaluated toward human lymphocytes (Table 2).
Compounds (0.009–5 µg/mL) were tested for cytotoxic activity against selected cancer cell lines: SF-295 (glioblastoma), HCT-8 (colon), MDAMB-435 (melanoma), HL60 (leukemia), PC3M (prostate cancer), OVCAR-8 (ovaries adenocarcinoma) and NCI-H258M (pulmonary bronchio-alveolar carcinoma). All cell lines were kindly obtained from the National Cancer Institute (Bethesda, MD, USA).Tumor cell proliferation was quantified through the ability of living cells to reduce the yellow dye 3-(4,5-dimethyl-2-thiazolyl)-2,5-diphenyl-2H-tetrazolium bromide (MTT, Sigma Aldrich)) to a purple formazan product and absorbance was measured at 595 nm (DTX-880, Beckman Coulter).

[1] = system: OVCAR-8 (ovaries adenocarcinoma); assay: In vitro antiproliferative MTT assay, OVCAR-8; format: cell-based
MDA-MB435 (melanoma) [2] = assay: In vitro antiproliferative MTT assay, MDA-MB435; format: cell-based; settings: Homo sapiens, MDA-MB-435; Table 2; MTT
MDA-MB435 (melanoma) [3] = assay: In vitro antiproliferative MTT assay, MDA-MB435; format: cell-based
[4] = system: HCT-116 (colon carcinoma); assay: Hollow Fiber Assay (HFA), HCT-116 fibers s.c. in mice; format: in vivo, BALB/c nude mice; settings: 4 days; for Proliferation (OD595 nm) HCT-116: mean ± S.E.M.
Method: as §1, §2, §3, §4, §5

[5] = IC50 for human lymphocytes/IC50 for cancer cell line
[6] = SI of 5b relative to SI of CA-4

## COc1cc(C(=O)N/N=C/c2ccccc2)cc(OC)c1OC [Compound 5b, (E)-N′benzylidene-3,4,5-trimetoxybenzohydrazide]
HL-60 (human leukemia); Homo sapiens, HL-60, Table 2, MTT
  IC50: 290 nM
HL-60 (human leukemia); [5]
  SI Lymphocyte/ HL-60: 4.11±0.39
tubulin
  inhibition of tubulin polymerization: 91%
PC3M (prostate cancer); Homo sapiens, PC-3M, Table 2, MTT
  IC50: 800 nM
PC3M (prostate cancer); [5]
  SI Lymphocyte/ PC3M: 1.60±0.10
SF-295 (glioblastoma); 25 mg/kg/day intraperitoneally
  Inhibition (%) SF-295: 61.89%
  Proliferation (OD595 nm) SF-295: 0.57±0.05 OD595 nm
SF-295 (glioblastoma); 50 mg/kg/day intraperitoneally
  Inhibition (%) SF-295: 72.68%
  Proliferation (OD595 nm) SF-295: 0.41±0.06 OD595 nm
Tumor cell lines
  IC50: 64 to 800 nM
[1]; Homo sapiens, OVCAR-8, Table 2, MTT
  IC50: 290 nM
[1]; [5]
  SI Lymphocyte/ OVCAR-8: 4.39±0.21
[1]; [6]
  comparative selectivity index (CA-4 vs 5b) OVCAR-8: 0.5
MDA-MB435 (melanoma) [2]
  IC50: 64 nM
MDA-MB435 (melanoma) [3]; [5]
  SI Lymphocyte/ MDA-MB345: 20.07±0.93
MDA-MB435 (melanoma) [3]; [6]
  comparative selectivity index (CA-4 vs 5b) MDA-MB435: 42
[4]; 25 mg/kg/day intraperitoneally
  Inhibition (%) HCT-116: 82.89%
  Proliferation (OD595 nm) HCT-116: 0.26±0.04 OD595 nm
[4]; 50 mg/kg/day intraperitoneally
  Inhibition (%) HCT-116: 80.76%
  Proliferation (OD595 nm) HCT-116: 0.29±0.05 OD595 nm
